Entries after “also recorded” stand apart in the source; their conditions may differ.
What was measured:
Sprague–Dawley rats = test: 5-day repeat-dose oral toxicity and toxicokinetic study (non-GLP); format: in vivo
Procedure: (§1) As part of a two-phase study, repeat-dose toxicity and toxicokinetics of SRP-001, when administered via oral gavage once daily to Sprague–Dawley rats for 5 d, was done (Calvert Labs/Altasciences, Scott Township, PA USA). The doses selected for Phase II were based on the results of Phase I. SRP-001 was administered to 20 naïve rats (5/group in Groups 5–8) once daily for 5 days via oral gavage for toxicology evaluation and once to 18 naïve rats (6/group in Groups 9–11) for toxicokinetic evaluation.
(§2) Mortality/morbidity was performed twice daily and once prior to sacrifice. Clinical observations were evaluated prior to each dose administration and approximately 1–3 h post-dose for animals in Groups 5–8. Body weights were recorded prior to randomization/selection, prior to dose administration on day 1 for animals in Groups 5–11, and prior to dose administration on day 5 for Groups 5–8. Food consumption was recorded for animals from Groups 5–8 on day 5. Blood for evaluation of hematology, coagulation and clinical chemistry and urine for urinalysis was collected from animals in Groups 5–8 on day 6. All animals in Groups 5–8 were sacrificed on […]. Selected tissues were harvested at necropsy, selected organs weighed, and selected tissues preserved. Blood for toxicokinetic evaluation was collected from animals in Groups 9–11 at selected timepoints on day 1 to ensure comprehensive data capture. These timepoints include 0 h (pre-dose) and post-dose intervals of 1, 2, 4, 8, and 24 h on both Day 1 and […] of the study. This schedule allows for a robust assessment of SRP-001's pharmacokinetic profile, including absorption, distribution, metabolism, and excretion and is in line with current FDA-guidelines for GLP studies.
(§3) Clinical signs included soft feces, brown staining of the anogenital area, and a few instances of red staining of the muzzle. […] Half-lives were 6.19 and 6.86 h at mid and high doses, respectively. […] Based on these observations, SRP-001 was considered to be tolerated at 1200 mg/kg when administered once daily for 5 consecutive days.

[1] = as above; format: in vivo, rats; settings: Sprague-Dawley, rat, blood, po
Procedure: as §1, §2, §3

[2] = system: Rat liver and stomach cells; test: In vivo mammalian alkaline comet assay; set-up: species or system rats
Procedure: Male Sprague–Dawley rats were orally administered SRP-001 at 500, 1000, or 2000 mg/kg/dose for two consecutive days at a dose volume of 10 mL/kg/dose (Bioreliance, Rockville, MD USA). The vehicle control was 10% Labrasol, 10% DMSO, and 80% PEG400. The positive control for the Comet assay, ethyl methanesulfonate (EMS), was orally administered at 200 mg/kg/dose for two consecutive days at a dose volume of 10 mL/kg/dose. […] Animals were euthanized 3–4 h after the last dose administration. The liver and glandular stomach were collected and processed for comet evaluation.
The group mean % tail DNA for the vehicle control was within the 95% control limit of the study historical data range, with one animal (#160) exceeding the individual animal 95% control limit but within the minimum/maximum range. Additionally, three animals (#173, 174, and 175) in the mid-dose (1000 mg/kg/dose) group likewise exceeded the individual animal 95% control limit but were within the minimum/maximum range.
The group mean % tail DNA for the vehicle control was within the 95% control limit of the study historical data range, with one animal (#158) exceeding both the individual animal 95% control limit and minimum/maximum ranges. One animal (#171) in the mid-dose (1000 mg/kg/dose) group and one animal (#180) in the high-dose (2000 mg/kg/dose) group exceeded just the 95% control limit range but were within the minimum/maximum range. One animal (#170) in the mid-dose (1000 mg/kg/dose) group and one animal (#179) in the high-dose (2000 mg/kg/dose) group exceeded both the individual animal 95% control limit and minimum/maximum ranges.

[3] = Toxicokinetics following IV & PO dosing; format: in vivo, dog; settings: beagle dogs
Source text: Supplementary Fig. 19. Toxicokinetic (TK) beagle dog data.

[4] = system: Salmonella typhimurium strains TA98, TA100, TA1535, TA1537, and E. coli WP2 uvrA; test: Ames bacterial reverse mutation assay; format: cell-based, Escherichia coli
Procedure: SRP-001 was tested to evaluate its mutagenic potential by measuring its ability to induce reverse mutations at selected loci of several strains of Salmonella typhimurium (S. typhimurium) and at the tryptophan locus of Escherichia coli (E. coli) strain WP2 uvrA in the presence and absence of an exogenous metabolic activation system (Bioreliance, Rockville, MD USA). Dimethyl sulfoxide (10% DMSO) was used as the vehicle. The dose levels tested in the preliminary toxicity assay were 6.67, 10.0, 33.3, 66.7, 100, 333, 667, 1000, 3333, and 5000 µg per plate. No precipitate was observed. […] The dose levels tested in the mutagenicity assay were 100, 333, 667, 1000, 3333, and 5000 µg per plate.

[5] = LC–MS/MS detection of D10-SRP-001 and AM404 in the periaqueductal gray (PAG); format: in vivo, rats; settings: 32 mg/kg ip, 30 min post-injection, rats with CFA or vehicle
Procedure: Next, we sought to define the uptake of SRP-001 in the nociception area of the brain, the midbrain’s periaqueductal (PAG) area[42],[43]. Thirty min following ip-SRP-001 administration (32 mg/kg), the PAG was harvested and analyzed by LC/MS–MS. D10-SRP-001 was used to match the fragmentation pattern while monitoring analytes.
Deuterated compound D10-SRP-001 was synthesized by Olon Ricerca Bioscience (Concord, OH), and purity was determined to be > 99.9% by HPLC. This was used as pure analytical standard for detection of SRP-001 using an LC–MS/MS method. Similarly, pure analytical standard of AM404 (10 ng/mL) obtained from Cayman Chemical (Ann Arbor, MI) was used to characterize the full fragmentation pattern of AM404. […] Thirty min post-injection, the animals were sacrificed (same as in the CFA/von Frey model), their brains harvested, and the midbrain periaqueductal gray (PAG) region excised. SRP-001 or AM404 were extracted from the PAG using a liquid–liquid extraction method using 1:1 MeOH:H2O for LC–MS/MS and were loaded onto a liquid chromatography-tandem mass spectrophotometer for analysis. The mass spectrophotometer was operated in multiple reaction monitoring (MRM) mode using positive ion electrospray. D10-SRP-001 was detected by monitoring the m/z transition 416 → 186. AM404 was detected by monitoring the m/z transition 396 → 287.

Row | Compound | AUC and Cmax levels versus dose (Sprague–Dawley rats; day 1) | Dose considered to be tolerated (Sprague–Dawley rats; once daily for 5 consecutive days) [mg/kg] | Liver weights and cholesterol levels (Sprague–Dawley rats; once daily for 5 days) | half-life ([1]; high dose) [h] | Tmax ([1]; low dose) [h] | Tmax ([1]; mid and high doses) [h] | half-life ([1]; mid dose) [h] | % tail DNA, glandular stomach ([2]; 500, 1000, 2000 mg/kg/dose) | % tail DNA, liver ([2]; 500, 1000, 2000 mg/kg/dose) | Comet assay result (DNA damage in liver and stomach) ([2]; up to 2000 mg/kg/dose, two consecutive days, oral) | Exposure versus dose [3] | Time of Cmax [3] [min] | Dose with toxicity (reduction in the revertant count) ([4]; preliminary toxicity assay, tester strains TA1537 and WP2 uvrA, absence of S9) [µg per plate] | Mutagenic response (reverse mutations) ([4]; up to 5000 µg per plate, presence or absence of S9 activation) | AM404 production in the periaqueductal gray region [5]
1 | CCN(CC)C(=O)c1ccccc1S(=O)(=O)NCC(=O)Nc1ccc(O)cc1 [SRP-001, N,N-diethyl-2-[[2-(4-hydroxyanilino)-2-oxo-ethyl]sulfamoyl]benzamide] | increased in a dose-dependent manner | 1200 | Test article-related increases | 6.86 | 3 | 4.5 | 6.19 | No statistically significant increases | No statistically significant increases | negative; also recorded: negative (non-DNA damaging) | dose-dependent response | 15 to 30 | 5000 | negative; also recorded: No positive mutagenic responses; also recorded: No positive mutagenic responses were observed with any of the tester strains in either the presence or absence of S9 activation | –
2 | CC(=O)Nc1ccc(O)cc1 [ApAP, acetaminophen, reference compound] | – | – | – | – | – | – | – | – | – | – | – | – | – | – | diminished
